Target: T1, rPfcal-IIa (Pf-calpain catalytic subdomain IIa) (Plasmodium falciparum, UniProt E5LAD0)
T1 construct: also baculovirus/High Five for the mutation study; monomeric proposed
T1 sequence (E5LAD0 822-1216): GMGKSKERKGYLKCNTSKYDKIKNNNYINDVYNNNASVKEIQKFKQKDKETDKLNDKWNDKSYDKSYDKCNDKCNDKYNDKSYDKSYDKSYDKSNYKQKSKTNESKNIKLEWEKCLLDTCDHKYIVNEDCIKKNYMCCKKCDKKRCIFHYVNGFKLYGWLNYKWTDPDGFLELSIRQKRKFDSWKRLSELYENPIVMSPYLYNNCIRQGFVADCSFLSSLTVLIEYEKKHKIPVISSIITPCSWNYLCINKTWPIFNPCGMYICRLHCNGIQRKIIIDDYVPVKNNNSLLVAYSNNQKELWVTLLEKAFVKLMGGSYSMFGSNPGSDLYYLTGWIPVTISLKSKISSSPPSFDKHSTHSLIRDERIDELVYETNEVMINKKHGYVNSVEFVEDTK
Test: fluorogenic Suc-LLVY-AMC assay and gelatin zymography
Format: biochemical
Conditions: 100 μM inhibitor pre-incubated 1 h at 37°C; 20 μM Suc-LLVY-AMC, 100 mM Tris-HCl pH 7.5, 1 mM DTT

CC(C)C[C@H](NC(=O)[C@@H]1O[C@H]1C(=O)O)C(=O)NCCCCNC(=N)N [E-64]
inhibition at 100 μM: enzymatic activity of rPfcal-IIa protein was significantly inhibited by ALLN and E-64

Source: PMC3583800, “Identification of active Plasmodium falciparum calpain to establish screening system for Pf-calpain-based drug development” (Malaria Journal, 2013)
